Experimental data from US10780090B2, “Heteroaryl compounds useful as inhibitors of SUMO activating enzyme” (Millennium Pharmaceuticals, Inc., priority 2014, dated 2020).

Target: recombinant human SAE enzyme (Homo sapiens (Human), UniProt Q9UBT2)
Experiment: SAE HTRF enzyme assay
Format: biochemical
Details: for inhibition at 0.111 µM: Concentration 0.111 μM, read-out: Percent Inhibition; for IC50: class symbols A/B/C
Outline: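 First, recombinant human SAE (0.11 nM) transfers Sumo-Flag onto Ubc9-GST using 0.5 μM ATP for 105 min at 24° C. Next, EDTA-containing detection buffer with labelled anti-Flag and anti-GST antibodies is added for 2 h. Finally, FRET is quantified and percent inhibition or IC50 derived.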

recombinant human SAE enzyme, sequence (Q9UBT2 whole entry): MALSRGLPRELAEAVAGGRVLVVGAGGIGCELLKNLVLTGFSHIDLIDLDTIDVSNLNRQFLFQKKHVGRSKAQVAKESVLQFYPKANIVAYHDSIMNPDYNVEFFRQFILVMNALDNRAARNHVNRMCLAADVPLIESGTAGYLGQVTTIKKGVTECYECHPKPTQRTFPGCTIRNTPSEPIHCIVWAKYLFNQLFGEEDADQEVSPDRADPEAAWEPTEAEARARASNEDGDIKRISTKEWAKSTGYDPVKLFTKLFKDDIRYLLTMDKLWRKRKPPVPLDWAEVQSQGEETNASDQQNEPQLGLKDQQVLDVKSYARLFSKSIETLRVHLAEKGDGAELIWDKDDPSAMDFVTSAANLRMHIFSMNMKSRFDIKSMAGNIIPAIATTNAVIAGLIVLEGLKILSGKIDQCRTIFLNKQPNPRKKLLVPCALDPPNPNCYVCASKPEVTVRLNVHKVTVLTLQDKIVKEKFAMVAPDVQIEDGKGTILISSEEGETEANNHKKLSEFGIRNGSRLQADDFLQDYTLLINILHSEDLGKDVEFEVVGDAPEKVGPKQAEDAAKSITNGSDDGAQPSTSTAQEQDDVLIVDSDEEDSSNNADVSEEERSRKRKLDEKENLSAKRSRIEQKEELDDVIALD
recombinant human SAE enzyme, sequence (Q9UBE0 whole entry partner): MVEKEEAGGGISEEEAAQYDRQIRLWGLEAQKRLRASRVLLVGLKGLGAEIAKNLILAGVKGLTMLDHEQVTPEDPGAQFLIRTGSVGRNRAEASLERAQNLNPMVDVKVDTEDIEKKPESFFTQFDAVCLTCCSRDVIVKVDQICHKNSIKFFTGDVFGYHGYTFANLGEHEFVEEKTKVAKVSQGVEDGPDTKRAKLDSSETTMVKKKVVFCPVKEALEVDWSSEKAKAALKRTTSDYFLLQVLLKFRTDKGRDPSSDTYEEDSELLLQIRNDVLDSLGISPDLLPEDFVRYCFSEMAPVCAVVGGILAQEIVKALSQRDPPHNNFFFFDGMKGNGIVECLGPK

SMILES | inhibition at 0.111 µM [%] | IC50 [nM]
CCc1cccc(Cc2cc(C(=O)c3cncnc3N[C@@H]3C[C@H](COS(N)(=O)=O)[C@@H](O)C3)sc2C)c1 [I-111, {(1R,2S,4R)-4-[(5-{[4-(3-ethylbenzyl)-5-methyl-2-thienyl]carbonyl}pyrimidin-4-yl)amino]-2-hydroxycyclopentyl}methyl sulfamate] | 98 | < 10
NS(=O)(=O)OC[C@H]1C[C@@H](Nc2ncncc2C(=O)c2cc(Cc3cccc(Br)c3)c(Cl)s2)C[C@@H]1O [I-112, {(1R,2S,4R)-4-[(5-{[4-(3-bromobenzyl)-5-chloro-2-thienyl]carbonyl}pyrimidin-4-yl)amino]-2-hydroxycyclopentyl}methyl sulfamate] | 97 | 
NS(=O)(=O)OC[C@H]1C[C@@H](Nc2ncncc2C(=O)c2cc(Cc3cccc(OC(F)F)c3)cs2)C[C@@H]1O [I-113, [(1R,2S,4R)-4-{[5-({4-[3-(difluoromethoxy)benzyl]-2-thienyl}carbonyl)pyrimidin-4-yl]amino}-2-hydroxycyclopentyl]methyl sulfamate] | 97 | < 10
NS(=O)(=O)OC[C@H]1C[C@@H](Nc2ncncc2C(=O)c2cc(Cn3ccc4ccccc43)cs2)C[C@@H]1O [I-114, {(1R,2S,4R)-2-hydroxy-4-[(5-{[4-(1H-indol-1-ylmethyl)-2-thienyl]carbonyl}pyrimidin-4-yl)amino]cyclopentyl}methyl sulfamate] | 97 | < 10
NS(=O)(=O)OC[C@H]1C[C@@H](Nc2ncncc2C(=O)c2ccc(Cc3ccccc3)s2)[C@H](O)[C@@H]1O [I-115, [(1R,2R,3S,4R)-4-({5-[(5-benzyl-2-thienyl)carbonyl]pyrimidin-4-yl}amino)-2,3-dihydroxycyclopentyl]methyl sulfamate] | 90 | 
NS(=O)(=O)OC[C@H]1C[C@@H](Nc2ncncc2C(=O)c2cc(Cc3cccc(Cl)c3)c(Br)s2)C[C@@H]1O [I-118, {(1R,2S,4R)-4-[(5-{[5-bromo-4-(3-chlorobenzyl)-2-thienyl]carbonyl}pyrimidin-4-yl)amino]-2-hydroxycyclopentyl}methyl sulfamate] | 97 | < 10
NS(=O)(=O)OC[C@H]1C[C@@H](Nc2ncncc2C(=O)c2cc(Cc3ccc(C(F)(F)F)o3)cs2)C[C@@H]1O [I-119, [(1R,2S,4R)-2-Hydroxy-4-{(5-[(4-{[5-(trifluoromethyl)-2-furyl]methyl}-2-thienyl)carbonyl]pyrimidin-4-yl}amino)cyclopentyl]methyl sulfamate] | 96 | < 10
NS(=O)(=O)OC[C@H]1C[C@@H](Nc2ncncc2C(=O)c2cc(COc3cccc(Cl)c3)cs2)C[C@@H]1O [I-120, [(1R,2S,4R)-4-{[5-({4-[(3-chlorophenoxy)methyl]-2-thienyl}carbonyl)pyrimidin-4-yl]amino}-2-hydroxycyclopentyl]methyl sulfamate] | 97 | < 10
COc1cccc(Cc2csc(C(=O)c3cncnc3N[C@@H]3C[C@H](COS(N)(=O)=O)[C@@H](O)C3)c2)c1 [I-123, {(1R,2S,4R)-2-hydroxy-4-[(5-{[4-(3-methoxybenzyl)-2-thienyl]carbonyl}pyrimidin-4-yl)amino]cyclopentyl}methyl sulfamate] | 96 | < 10
N#Cc1ccccc1OCc1csc(C(=O)c2cncnc2N[C@@H]2C[C@H](COS(N)(=O)=O)[C@@H](O)C2)c1 [I-124, [(1R,2S,4R)-4-{[5-({4-[(2-cyanophenoxy)methyl]-2-thienyl}carbonyl)pyrimidin-4-yl]amino}-2-hydroxycyclopentyl]methyl sulfamate] | 97 | < 10
NS(=O)(=O)OC[C@H]1C[C@@H](Nc2ncncc2C(=O)c2cc(Cn3ccc4ccc(Cl)cc43)cs2)C[C@@H]1O [I-125, [(1R,2S,4R)-4-{[5-({4-[(6-chloro-1H-indol-1-yl)methyl]-2-thienyl}carbonyl)pyrimidin-4-yl]amino}-2-hydroxycyclopentyl]methyl sulfamate] | 97 | < 10
COc1ccc2c(c1)N(Cc1cc(C(=O)c3cncnc3N[C@@H]3C[C@H](COS(N)(=O)=O)[C@@H](O)C3)sc1C)CC2 [I-126, [(1R,2S,4R)-2-hydroxy-4-{[5-({4-[(6-methoxy-2,3-dihydro-1H-indol-1-yl)methyl]-5-methyl-2-thienyl}carbonyl)pyrimidin-4-yl]amino}cyclopentyl]methyl sulfamate] | 98 | < 10
NS(=O)(=O)OC[C@H]1C[C@@H](Nc2ncncc2C(=O)c2ccc(Cc3ccccc3)o2)C[C@@H]1O [I-127, [(1R,2S,4R)-4-{[5-(5-benzyl-2-furoyl)pyrimidin-4-yl]amino}-2-hydroxycyclopentyl]methyl sulfamate] | 95 | < 10
Cc1sc(C(=O)c2cncnc2N[C@@H]2C[C@H](COS(N)(=O)=O)[C@@H](O)C2)cc1CN1CCc2ccc(C#N)cc21 [I-128, [(1R,2S,4R)-4-{[5-({4-[(6-cyano-2,3-dihydro-1H-indol-1-yl)methyl]-5-methyl-2-thienyl}carbonyl)pyrimidin-4-yl]amino}-2-hydroxycyclopentyl]methyl sulfamate] | 95 | < 10
NS(=O)(=O)OC[C@H]1C[C@@H](Nc2ncncc2C(=O)c2cc(COc3ccccc3Cl)cs2)C[C@@H]1O [I-129, [(1R,2S,4R)-4-{[5-({4-[(2-chlorophenoxy)methyl]-2-thienyl}carbonyl)pyrimidin-4-yl]amino}-2-hydroxycyclopentyl]methyl sulfamate] | 95 | < 10
NS(=O)(=O)OC[C@H]1C[C@@H](Nc2ncncc2C(=O)c2cc(Cn3cc(C(F)(F)F)cn3)cs2)C[C@@H]1O [I-130, [(1R,2S,4R)-2-hydroxy-4-({5-[(4-{[4-(trifluoromethyl)-1H-pyrazol-1-yl]methyl}-2-thienyl)carbonyl]pyrimidin-4-yl}amino)cyclopentyl]methyl sulfamate] | 97 | < 10
Cc1ccccc1OCc1csc(C(=O)c2cncnc2N[C@@H]2C[C@H](COS(N)(=O)=O)[C@@H](O)C2)c1 [I-131, [(1R,2S,4R)-2-hydroxy-4-{[5-({4-[(2-methylphenoxy)methyl]-2-thienyl}carbonyl)pyrimidin-4-yl]amino}cyclopentyl]methyl sulfamate] | 96 | < 10
Cc1ccc2ccn(Cc3csc(C(=O)c4cncnc4N[C@@H]4C[C@H](COS(N)(=O)=O)[C@@H](O)C4)c3)c2c1 [I-132, [(1R,2S,4R)-2-hydroxy-4-{[5-({4-[(6-methyl-1H-indol-1-yl)methyl]-2-thienyl}carbonyl)pyrimidin-4-yl]amino}cyclopentyl]methyl sulfamate] | 96 | < 10
NS(=O)(=O)OC[C@H]1C[C@@H](Nc2ncncc2C(=O)c2ccc(-c3ccccc3)o2)[C@H](O)[C@@H]1O [I-134, [(1R,2R,3S,4R)-2,3-dihydroxy-4-{[5-(5-phenyl-2-furoyl)pyrimidin-4-yl]amino}cyclopentyl]methyl sulfamate] | 94 | < 10
